Reference: patent publication US6861417B2, “Pyridin-4-YL or pyrimidin-4-YL substituted pyrazines” (SmithKline Beecham Corporation, priority 1998, dated 2005)

Target: T1, CSBP/p38 (Homo sapiens, UniProt Q16539)
T1 construct: made in house; host or cells: yeast
Assay: CSBP Kinase Assay (transfer of 32P from ATP to EGFR-derived peptide T669)
Assay type: biochemical
Description: This assay measures the CSBP-catalyzed transfer of ^32P from [a-^32P]ATP to threonine residue in an epidermal growth factor receptor (EGFR)-derived peptide (T669) with the following sequence: […] (residues 661-681). (See Gallagher et al., “Regulation of Stress Induced Cytokine Production by Pyridinyl Imidazoles: Inhibition of CSPB Kinase”, BioOrganic & Medicinal Chemistry, 1997, 5, 49-64).
Reactions were carried in round bottom 96 well plate (from Corning) in a […]. Reactions contained (in final concentration): 25 mM Hepes, pH7.5; 10 mM MgCl2; 0.17 mM ATP (the Km[ATP] of p38 (see Lee et al., Nature […], n72 pg. 639-746 (December 1994) and Young et al., J. Biol. Chem. 272, n18 pg. 12116-12121 (May 1997)); 2.5 uCi of [g-32P]ATP; 0.2 mM sodium orthovanadate; 1 mM DTT; 0.1% BSA; 10% glycerol; 0.67 mM T669 peptide; and 2-4 nM of yeast-expressed, activated and purified p38. Reactions were initiated by the addition of [gamma-32P]Mg/ATP, and incubated for 25 min at 37 C. Inhibitors (dissolved in DMSO) were incubated with the reaction mixture on ice for 30 minutes prior to adding the 32P-ATP. Final DMSO concentration was 0.16%. […] Filters were washed with 75 mM phosphoric acids, and incorporated 32P was quantified using beta scintillation counter. […]

T1 sequence (Q16539 whole entry): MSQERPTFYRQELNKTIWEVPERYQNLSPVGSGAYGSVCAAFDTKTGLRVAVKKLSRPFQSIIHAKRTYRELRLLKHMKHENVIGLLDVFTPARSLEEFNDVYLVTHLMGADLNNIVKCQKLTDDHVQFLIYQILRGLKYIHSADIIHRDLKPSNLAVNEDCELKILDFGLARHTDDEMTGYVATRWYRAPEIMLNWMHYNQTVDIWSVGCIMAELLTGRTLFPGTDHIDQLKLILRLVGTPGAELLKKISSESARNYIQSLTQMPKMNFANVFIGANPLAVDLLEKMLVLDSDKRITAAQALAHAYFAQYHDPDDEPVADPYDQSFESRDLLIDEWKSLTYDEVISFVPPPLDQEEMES

Structure (SMILES) | inhibitory activity upon retesting (upon retesting, "at this micromolar amount" (IC50 of <50 uM)) | IC50 (CSBP kinase assay, called "this binding assay", read-out: positive inhibitory activity, IC50) [µM]
COc1ccc2cc(-c3nccnc3-c3ccncc3)ccc2c1 [Example 3, 2-(6-Methoxy)napthyl-2-yl-3-(4-pyridyl)pyrazine] | not found active | –
Fc1ccc(-c2nccnc2-c2ccncc2)cc1 [Example 2, 2-(4-Fluorophenyl)-3-(pyridin-4-yl)pyrazine] | – | < 50
